From ChEMBL document CHEMBL1201862, “PubChem BioAssay data set” (2004)
Values belong to the compound of their own block, whether it stands above or below them. Activity calls are given as the source filed them. Rule as the data show it, for most assays here: actives have a measured IC50 and inactives only a lower limit.

Assays:
HEK293 [1] = experiment: cells; type: functional, cell-based; conditions: Homo sapiens
HEK293 [2] = experiment: cells; type: functional, cell-based; conditions: Homo sapiens; remark: listed apart in the source
HEK293 [3] = experiment: inhibition of NOD1-driven NF-kB reporter – cell-based, luminescence, uHTS, primary screen (AID 1578); type: functional; conditions: Homo sapiens
HEK293 [4] = experiment: NOD2 signaling inhibitors in MDP-stimulated cells, cell-based, uHTS, luminescence (AID 2001); type: functional; conditions: Homo sapiens
HEK293 [5] = experiment: cells; type: functional, cell-based; conditions: Homo sapiens; remark: listed apart in the source
HEK293 [6] = experiment: cells; conditions: Homo sapiens
[7] = molecular target: T1, Carboxy-terminal domain RNA polymerase II polypeptide A small phosphatase 1 (Homo sapiens, UniProt Q9GZU7); experiment: CTDSP1 inhibitors, concentration-response, biochemical, absorbance readout, ultra-high-throughput screen actives (AID 540297); type: functional
T1 sequence (Q9GZU7 whole entry): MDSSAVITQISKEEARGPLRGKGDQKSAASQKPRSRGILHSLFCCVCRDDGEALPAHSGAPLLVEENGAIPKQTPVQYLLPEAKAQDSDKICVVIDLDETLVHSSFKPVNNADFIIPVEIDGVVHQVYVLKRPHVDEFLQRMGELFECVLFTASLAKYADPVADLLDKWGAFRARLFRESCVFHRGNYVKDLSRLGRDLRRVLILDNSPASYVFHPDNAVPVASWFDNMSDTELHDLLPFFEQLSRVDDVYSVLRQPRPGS

Coagulation factor XII = molecular target: T2, Coagulation factor XII (Homo sapiens, UniProt P00748); type: functional;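 also: activated factor XIIa alpha cleaving a fluorogenic AMC peptide substrate; inhibitor potency from loss of enzyme activity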
T2 sequence (P00748 whole entry): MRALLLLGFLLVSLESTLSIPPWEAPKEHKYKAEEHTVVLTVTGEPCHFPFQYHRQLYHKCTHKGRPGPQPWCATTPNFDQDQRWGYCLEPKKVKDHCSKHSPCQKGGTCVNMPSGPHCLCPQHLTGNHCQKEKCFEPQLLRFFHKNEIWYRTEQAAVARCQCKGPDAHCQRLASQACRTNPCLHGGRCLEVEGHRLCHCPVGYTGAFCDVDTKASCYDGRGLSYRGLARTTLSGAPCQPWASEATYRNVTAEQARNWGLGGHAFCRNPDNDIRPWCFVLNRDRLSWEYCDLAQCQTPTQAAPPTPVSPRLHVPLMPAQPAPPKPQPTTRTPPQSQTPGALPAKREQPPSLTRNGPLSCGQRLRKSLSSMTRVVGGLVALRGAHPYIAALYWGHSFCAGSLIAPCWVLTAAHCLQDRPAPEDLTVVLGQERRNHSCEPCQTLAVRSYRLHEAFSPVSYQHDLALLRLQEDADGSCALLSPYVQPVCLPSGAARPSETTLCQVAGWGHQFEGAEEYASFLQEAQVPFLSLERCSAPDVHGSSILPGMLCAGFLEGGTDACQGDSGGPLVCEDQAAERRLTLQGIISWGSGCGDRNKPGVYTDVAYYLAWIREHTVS

SUMO-activating enzyme [8] = molecular target: T3, SUMO-activating enzyme (Homo sapiens, UniProt Q9UBT2); experiment: blockers of SAE1/SAE2–UBC9 SUMO transfer – biochemical, HTRF, uHTS, primary screen (AID 2006); type: protein-complex assay
T3 sequence (Q9UBE0 whole entry): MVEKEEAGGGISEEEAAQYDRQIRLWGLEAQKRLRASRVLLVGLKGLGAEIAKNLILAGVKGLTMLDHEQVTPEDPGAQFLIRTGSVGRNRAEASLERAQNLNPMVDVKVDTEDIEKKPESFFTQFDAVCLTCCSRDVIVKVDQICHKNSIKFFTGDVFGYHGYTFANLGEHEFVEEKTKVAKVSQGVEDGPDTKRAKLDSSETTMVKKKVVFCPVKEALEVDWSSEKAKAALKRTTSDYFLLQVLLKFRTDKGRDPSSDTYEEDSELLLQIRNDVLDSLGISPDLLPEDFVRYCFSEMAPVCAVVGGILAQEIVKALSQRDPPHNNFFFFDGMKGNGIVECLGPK
T3 sequence (Q9UBT2 whole entry): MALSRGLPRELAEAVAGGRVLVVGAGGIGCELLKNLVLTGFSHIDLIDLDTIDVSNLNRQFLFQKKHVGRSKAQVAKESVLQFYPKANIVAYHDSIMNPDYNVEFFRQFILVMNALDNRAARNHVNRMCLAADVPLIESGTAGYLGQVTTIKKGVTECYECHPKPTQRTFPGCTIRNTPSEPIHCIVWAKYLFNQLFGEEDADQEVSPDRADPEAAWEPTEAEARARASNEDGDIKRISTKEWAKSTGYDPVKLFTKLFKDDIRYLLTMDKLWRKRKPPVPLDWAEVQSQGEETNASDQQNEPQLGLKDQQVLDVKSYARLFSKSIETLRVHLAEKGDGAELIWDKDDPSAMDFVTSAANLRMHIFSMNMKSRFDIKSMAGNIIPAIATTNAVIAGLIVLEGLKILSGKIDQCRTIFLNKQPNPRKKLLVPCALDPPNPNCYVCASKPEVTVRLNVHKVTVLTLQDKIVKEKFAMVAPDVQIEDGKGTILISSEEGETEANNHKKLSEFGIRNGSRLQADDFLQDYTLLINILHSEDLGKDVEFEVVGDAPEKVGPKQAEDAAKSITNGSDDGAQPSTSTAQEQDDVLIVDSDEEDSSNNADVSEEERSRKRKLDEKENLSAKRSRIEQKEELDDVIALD

SUMO-activating enzyme [9] = molecular target: T3, SUMO-activating enzyme; experiment: blockers of UBC9-mediated SUMO conjugation – biochemical, AlphaScreen, SUMOylation inhibitor project, confirmation (AID 2018); type: functional
[10] = molecular target: Lysine-specific demethylase 4C (Homo sapiens, UniProt Q9H3R0); experiment: inhibition of JMJD2C H3K9me3 demethylation – biochemical, DELFIA europium, cherry-picked samples, dose response (AID 488835); type: functional
Chain of Lysine-specific demethylase 4C (Q9H3R0 whole entry): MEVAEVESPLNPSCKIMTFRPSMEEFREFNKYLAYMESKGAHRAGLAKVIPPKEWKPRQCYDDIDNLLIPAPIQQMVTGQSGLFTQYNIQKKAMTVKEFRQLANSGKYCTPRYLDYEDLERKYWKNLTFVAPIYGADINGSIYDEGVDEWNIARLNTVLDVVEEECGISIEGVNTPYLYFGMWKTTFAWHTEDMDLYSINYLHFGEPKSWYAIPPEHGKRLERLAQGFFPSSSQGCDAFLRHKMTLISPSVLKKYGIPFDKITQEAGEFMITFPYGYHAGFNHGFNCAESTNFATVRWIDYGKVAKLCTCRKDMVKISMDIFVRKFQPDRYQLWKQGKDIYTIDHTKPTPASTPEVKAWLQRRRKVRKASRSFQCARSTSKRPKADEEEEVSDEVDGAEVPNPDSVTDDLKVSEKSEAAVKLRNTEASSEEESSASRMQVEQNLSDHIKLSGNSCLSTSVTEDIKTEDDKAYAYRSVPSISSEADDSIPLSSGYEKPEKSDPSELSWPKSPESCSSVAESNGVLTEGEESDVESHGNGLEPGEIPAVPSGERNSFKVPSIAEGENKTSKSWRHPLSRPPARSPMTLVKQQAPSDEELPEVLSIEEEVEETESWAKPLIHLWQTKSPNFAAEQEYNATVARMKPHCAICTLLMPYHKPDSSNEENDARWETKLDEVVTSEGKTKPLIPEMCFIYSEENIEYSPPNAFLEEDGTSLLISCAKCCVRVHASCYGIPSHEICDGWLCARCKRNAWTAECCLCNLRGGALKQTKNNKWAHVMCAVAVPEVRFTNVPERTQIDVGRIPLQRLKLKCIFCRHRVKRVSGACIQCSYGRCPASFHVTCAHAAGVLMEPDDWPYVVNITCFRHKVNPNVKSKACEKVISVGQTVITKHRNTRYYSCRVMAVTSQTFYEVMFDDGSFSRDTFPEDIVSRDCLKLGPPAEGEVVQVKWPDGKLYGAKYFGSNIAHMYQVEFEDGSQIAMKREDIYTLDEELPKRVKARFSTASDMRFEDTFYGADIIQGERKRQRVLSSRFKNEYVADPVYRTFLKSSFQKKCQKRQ

Structure (SMILES): O=C(CSc1nc(O)c2c(-c3ccccc3)csc2n1)Nc1ccccc1
IC50 (HEK293 [1]): > 20 µM (inactive)
IC50 (HEK293 [2]): 4.78 µM (active)
EC50 (HEK293 [3]): 5.71 µM (active)
IC50 (HEK293 [4]): 1.93 µM (active)
IC50 (HEK293 [5]): 16 µM (active)
IC50 (HEK293 [6]): > 20 µM (inactive)

IC50 [7]: 3.91 µM (active)
IC50 (Coagulation factor XII): > 50 µM (inactive)
IC50 (SUMO-activating enzyme [8]): 17.5 µM (active)
IC50 (SUMO-activating enzyme [9]): 19.8 µM (active)
Structure (SMILES): COc1ccc(C2=NN(C(=O)CCCC(=O)O)C(c3cn(-c4ccccc4)nc3-c3ccccc3)C2)cc1 (stereo unspecified)

AC50 [10]: 9.91 µM (active)
Structure (SMILES): CCCn1c(SCC(=O)NNC(=O)c2ccc(C)cc2)nnc1C(C)C
